# Patent US9370523B2, “Method for diagnosing or prediagnosing a beta-amyloidopathy or an alpha-synucleopathy” (Immungenetics AG, priority 2010, dated 2016)
# System: ABCC1 transporter
# Assay: Activation of the ABCC1 transporter
structure (smiles),measurement,value
"CCSc1ccc2c(c1)N(CCCN1CCN(C)CC1)c1ccccc1S2 [thiethylperazine, 2-(ethylthio)-10-[3-(4-methylpiperazin-1-yl)propyl]-10H-phenothiazine]","activation of the ABCC1 transporter, in words",particularly efficient activator of the ABCC1 transporter
